# Columns and labels:
# [1] = hydrated ion in aqueous solution; cited from earlier work
# [2] = Solubility in water / aqueous solution; format: physicochemical
# [3] = Stability of maltol in hot aqueous solution; format: physicochemical; details: near boiling temperatures
compound,measurement,setting,value
[Cl][Fe]([Cl])[Cl] [Ferric chloride],Ka,[1],7×10^−3
"Cc1occc(=O)c1O [maltol, 3-hydroxy-2-methyl-4-pyrone]",solubility in aqueous alkali hydroxide solutions,[2]; aqueous alkali hydroxide solutions,very soluble
same,solubility on heating,[2]; heating to near boiling temperatures,10 g/100 ml
same,solubility at low pH,[2]; low pH values of iron chloride solutions (pH 1-5),virtually insoluble
same,solubility on heating,"[2]; water, heating to temperatures above 60° C.",up to 10 g/100 ml
same,maximum aqueous solubility,"[2]; water, pH range 6-8, 20° C.",1 g/100 ml
same,stability in aqueous solution,[3],stable
Cc1occc(=O)c1[O-].Cc1occc(=O)c1[O-].Cc1occc(=O)c1[O-].[Fe+3] [ferric trimaltol],maximum solubility in water,"[2]; water, about 25° C.",about 3.5 g/100 ml water
[Cl][Fe][Cl] [ferrous chloride],Ka,[1],5×10^−9

# — US9096629B2, “Process of forming iron hydroxypyrone compounds” (Iron Therapeutics Holdings AG, priority 2011, dated 2015)
